Drawing on patent US20150299143A1, “SUBSTITUTED TRIAZOLE AND IMIDAZOLE COMPOUNDS” (HOFFMANN-LA ROCHE INC., priority 2012, published 2015), this text covers IC50 for 18 molecules.

The target in test [1] is T1, β 5i (chymotrypsin-like activity) (Homo sapiens, UniProt P20618+P28062).
T1 construct: protease activity associated with the proteasome complex in cultured cells; endogenous in cells; host or cells: Ramos cells
Briefly: Cell-Based Proteasome subunit activity/selectivity assay, β5i, substrate (ANW)2Rh110. As to conditions: Ramos cells; substrate (ANW)2Rh110 (β5i); highest concentration tested 20 μM; read-out: Ic50:ramos:ac-(anw)2-r110. From the text:
(§1) Cell-Based Proteasome Activity/Selectivity Assay
(§2) The Cell-Based Proteasome subunit activity/selectivity assay was a panel of 5 fluorogenic assays that independently measured the activity of β5c or β 5i (chymotrypsin-like activity), β 2c/2i (trypsin-like), and β 1c or β 1i (caspase-like) protease activity associated with the proteasome complex in cultured cells. Specifically, the following substrates were used for respective subunit activities: β 1i (PAL)2Rh110, β 1c: (LLE)2 Rh110, β 2c/2i: (KQL)2Rh110, β 5c: (WLA)2Rh110, β 5i: (ANW)2Rh110. The following procedure was followed:
(§3) Added 0.5 μl of 100× 4-fold serial diluted test compounds or DMSO to each well. Highest concentration of compound tested was 20 μM, thus compound serial dilution started from […]. Incubated for 30 minutes at 37° C. Then equilibrated at room temperature for 15 minutes. […] Shaked for one minute @ 700 rpm. Incubated for 120 min at room temperature. Then read the plates with an Envision multilabel plate reader (PerkinElmer) with 500 nm excitation/519 nm emission.

In the next test the test system is β 2c/2i (trypsin-like). Briefly: Cell-Based Proteasome subunit activity/selectivity assay, β2c/2i, substrate (KQL)2Rh110. As to conditions: Ramos cells; substrate (KQL)2Rh110 (β2c/2i); highest concentration tested 20 μM.
Excerpt: as §1, §2, §3

The target of test [2] is T2, β5c (chymotrypsin-like activity) (Homo sapiens, UniProt P20618+P28074).
T2 construct: protease activity associated with the proteasome complex in cultured cells; endogenous in cells; host or cells: Ramos cells
Briefly: Cell-Based Proteasome subunit activity/selectivity assay, β5c, substrate (WLA)2Rh110. As to conditions: Ramos cells; substrate (WLA)2Rh110 (β5c); highest concentration tested 20 μM; read-out: Ic50:ramos:rh110-(wla)2.
Excerpt: as §1, §2, §3

A further test has as its target T3, β 1i (caspase-like) (Homo sapiens, UniProt P28065+P40306).
T3 construct: protease activity associated with the proteasome complex in cultured cells; endogenous in cells; host or cells: Ramos cells
Briefly: Cell-Based Proteasome subunit activity/selectivity assay, β1i, substrate (PAL)2Rh110. As to conditions: Ramos cells; substrate (PAL)2Rh110 (β1i); highest concentration tested 20 μM; read-out: Ic50:ramos:rh110-(pal)2.
Excerpt: as §1, §2, §3

The target in a further test is T4, β 1c (caspase-like) (Homo sapiens, UniProt P28072+Q99436).
T4 construct: protease activity associated with the proteasome complex in cultured cells; endogenous in cells; host or cells: Ramos cells
In words: Cell-Based Proteasome subunit activity/selectivity assay, β1c, substrate (LLE)2Rh110. As to conditions: Ramos cells; substrate (LLE)2Rh110 (β1c); highest concentration tested 20 μM; read-out: Ic50:ramos:rh110-(lle)2.
Excerpt: as §1, §2, §3

As to `CCc1ccc(C(C#N)NC(=O)c2cn(CCN3Cc4cc(OC)ccc4C3=O)nn2)cc1` (stereo not drawn) [Example 47, 1-[2-(5-Methoxy-1-oxo-1,3-dihydro-isoindol-2-yl)-ethyl]-1H-[1,2,3]triazole-4-carboxylic acid [cyano-(4-ethyl-phenyl)-methyl]-amide], the IC50 was 1.49 µM in test [1]; at least 20 µM in the test on β 2c/2i (trypsin-like); 7.67 µM in test [2]; at least 20 µM on β 1i (caspase-like); at least 20 µM on β 1c (caspase-like).
With `COc1ccc(C(C#N)NC(=O)c2cn(CCNC(=O)c3ccc(OC)c(OC)c3OC)nn2)cc1` (stereo not drawn) [Example 8, 1-[2-(2,3,4-Trimethoxy-benzoylamino)-ethyl]-1H-[1,2,3]triazole-4-carboxylic acid [cyano-(4-methoxy-phenyl)-methyl]-amide], the IC50 was 0.423 µM in test [1]; at least 20 µM with β 2c/2i (trypsin-like); at least 20 µM in test [2]; at least 20 µM on β 1i (caspase-like); at least 20 µM at β 1c (caspase-like).
For `O=C(N[C@@H](CCc1ccccc1)C(=O)O)c1cn(CCNC(=O)c2ccc(C(F)(F)F)cc2F)nn1` [Example 82, (S)-2-({1-[2-(2-Fluoro-4-trifluoromethyl-benzoylamino)-ethyl]-1H-[1,2,3]triazole-4-carbonyl}-amino)-4-phenyl-butyric acid], the IC50 in test [1] is 0.163 µM; with β 2c/2i (trypsin-like), at least 20 µM; in test [2], at least 20 µM; at β 1i (caspase-like), at least 20 µM; at β 1c (caspase-like), at least 20 µM.
On to `CCc1ccc(C(C#N)NC(=O)c2cn(CCNC(=O)c3ccc(OC)c(OC)c3OC)nn2)cc1` (single isomer, unassigned) [Example 50], for which the IC50 was 0.058 µM in test [1]; at least 20 µM with β 2c/2i (trypsin-like); at least 20 µM in test [2]; at least 20 µM at β 1i (caspase-like); at least 20 µM on β 1c (caspase-like).
Take `CC(CCc1ccccc1)NC(=O)c1cn(CCNC(=O)c2ccc(C(F)(F)F)cc2F)nn1` (stereo not drawn) [Example 79, 1-[2-(2-Fluoro-4-trifluoromethyl-benzoylamino)-ethyl]-1H-[1,2,3]triazole-4-carboxylic acid (1-methyl-3-phenyl-propyl)-amide]: the IC50 in test [1] is 0.159 µM; with β 2c/2i (trypsin-like), at least 20 µM; in test [2], 3.39 µM; at β 1i (caspase-like), 0.976 µM; on β 1c (caspase-like), at least 20 µM.
`COc1ccc(C(=O)NCCn2cc(C(=O)NC(C#N)c3ccc(Br)cc3)nn2)c(OC)c1OC` (stereo not drawn) [Example 54, 1-[2-(2,3,4-Trimethoxy-benzoylamino)-ethyl]-1H-[1,2,3]triazole-4-carboxylic acid [(4-bromo-phenyl)-cyano-methyl]-amide]: the half-maximal inhibitory concentration (IC50) was 0.101 µM in test [1]; at least 20 µM in the test on β 2c/2i (trypsin-like); at least 20 µM in test [2]; at least 20 µM on β 1i (caspase-like); at least 20 µM on β 1c (caspase-like).
`COc1ccc(C(=O)NCCn2cc(C(=O)NC(C#N)c3ccc(OC(C)C)cc3)nn2)c(OC)c1OC` (stereo not drawn) [Example 67, 1-[2-(2,3,4-Trimethoxy-benzoylamino)-ethyl]-1H-[1,2,3]triazole-4-carboxylic acid [cyano-(4-isopropoxy-phenyl)-methyl]-amide]: the IC50 is 5.49 µM in test [1]; at least 20 µM with β 2c/2i (trypsin-like); at least 20 µM in test [2]; at least 20 µM at β 1i (caspase-like); at least 20 µM at β 1c (caspase-like).
As to `CCc1ccc(C(C#N)NC(=O)c2cn(CC/N=C(\SC)c3ccc(OC)c(OC)c3OC)nn2)cc1` (stereo not drawn) [Example 87, N-[2-(4-{[Cyano-(4-ethyl-phenyl)-methyl]-carbamoyl}-[1,2,3]triazol-1-yl)-ethyl]-2,3,4-trimethoxy-thiobenzimidic acid methyl ester], the IC50 is 2.47 µM in test [1]; at least 20 µM in the test on β 2c/2i (trypsin-like); 8.55 µM in test [2]; at least 20 µM on β 1i (caspase-like); at least 20 µM on β 1c (caspase-like).
With `O=C(CCNC(=O)c1cn(CCNC(=O)c2ccc(C(F)(F)F)cc2F)nn1)c1ccccc1` [Example 78], the IC50 in test [1] is 0.176 µM; in the test on β 2c/2i (trypsin-like), at least 20 µM; in test [2], 14.3 µM; at β 1i (caspase-like), at least 20 µM; at β 1c (caspase-like), at least 20 µM.
Take `CCc1ccc(C(C#N)NC(=O)c2cn(CCNC(=O)C3Cc4ccccc4C3)nn2)cc1` (stereo not drawn) [Example 12, 1-{2-[(Indane-2-carbonyl)-amino]-ethyl}-1H-[1,2,3]triazole-4-carboxylic acid [cyano-(4-ethyl-phenyl)-methyl]-amide]: the 50% inhibitory concentration (IC50) in test [1] is 1.26 µM; in the test on β 2c/2i (trypsin-like), at least 20 µM; in test [2], at least 20 µM; on β 1i (caspase-like), at least 20 µM; on β 1c (caspase-like) it was at least 20 µM.
Consider `CCc1ccc(C(C#N)NC(=O)c2cn(CCNC(=O)c3cccc(-c4ccccc4)n3)nn2)cc1` (stereo not drawn) [Example 15, 6-Phenyl-pyridine-2-carboxylic acid [2-(4-{[cyano-(4-ethyl-phenyl)-methyl]-carbamoyl}-[1,2,3]triazol-1-yl)-ethyl]-amide], for which the IC50 is 1.5 µM in test [1]; at least 20 µM in the test with β 2c/2i (trypsin-like); 7.76 µM in test [2]; at least 20 µM at β 1i (caspase-like); 19.9 µM at β 1c (caspase-like).
Take `COc1ccc(C(=O)NCCn2cc(C(=O)NC(C#N)c3ccc(C(C)C)cc3)nn2)c(OC)c1OC` (stereo not drawn) [Example 61, 1-[2-(2,3,4-Trimethoxy-benzoylamino)-ethyl]-1H-[1,2,3]triazole-4-carboxylic acid [cyano-(4-isopropyl-phenyl)-methyl]-amide]: the IC50 in test [1] is 1.31 µM; in the test with β 2c/2i (trypsin-like), at least 20 µM; in test [2], at least 20 µM; at β 1i (caspase-like), at least 20 µM; at β 1c (caspase-like) it was 17.1 µM.
Turning to `CCc1ccc(C(C#N)NC(=O)c2cn(CCNC(=O)c3ccc(OC)c(OC)c3OC)nn2)nc1` (stereo not drawn) [Example 63, 1-[2-(2,3,4-Trimethoxy-benzoylamino)-ethyl]-1H-[1,2,3]triazole-4-carboxylic acid [cyano-(5-ethyl-pyridin-2-yl)-methyl]-amide], the IC50 was 2.49 µM in test [1]; at least 20 µM in the test on β 2c/2i (trypsin-like); at least 20 µM in test [2]; at least 20 µM at β 1i (caspase-like); at least 20 µM on β 1c (caspase-like).
In the case of `COc1ccc(C(=O)NCCn2cc(C(=O)NCc3ccc(C)cc3)nn2)c(OC)c1OC` [Example 3, 1-[2-(2,3,4-Trimethoxy-benzoylamino)-ethyl]-1H-[1,2,3]triazole-4-carboxylic acid 4-methyl-benzylamide], the IC50 was 2.9 µM in test [1]; at least 20 µM in the test on β 2c/2i (trypsin-like); at least 20 µM in test [2]; at least 20 µM on β 1i (caspase-like); at least 20 µM at β 1c (caspase-like).
`COc1ccc(C(=O)CNC(=O)c2cn(CCNC(=O)c3ccc(OC)c(OC)c3OC)nn2)cc1` [Example 77, 1-[2-(2,3,4-Trimethoxy-benzoylamino)-ethyl]-1H-[1,2,3]triazole-4-carboxylic acid [2-(4-methoxy-phenyl)-2-oxo-ethyl]-amide]: the IC50 was 8.75 µM in test [1]; at least 20 µM in the test on β 2c/2i (trypsin-like); at least 20 µM in test [2]; at least 20 µM on β 1i (caspase-like); at least 20 µM at β 1c (caspase-like).
As for `COc1ccc(C(=O)NCCn2cc(C(=O)NC(C#N)c3ccc(C)cc3)nn2)c(OC)c1OC` (stereo not drawn) [Example 62, 1-[2-(2,3,4-Trimethoxy-benzoylamino)-ethyl]-1H-[1,2,3]triazole-4-carboxylic acid (cyano-p-tolyl-methyl)-amide], the concentration for half-maximal inhibition (IC50) in test [1] is 0.404 µM; in the test on β 2c/2i (trypsin-like) it was at least 20 µM; in test [2], at least 20 µM; at β 1i (caspase-like), at least 20 µM; at β 1c (caspase-like), at least 20 µM.
For `CCc1ccc(C(C#N)NC(=O)c2cn(CCNC(=O)c3ccc(OC)c(OC)c3OC)nn2)cc1` (stereo not drawn) [Example 1, 1-[2-(2,3,4-Trimethoxy-benzoylamino)-ethyl]-1H-[1,2,3]triazole-4-carboxylic acid [cyano-(4-ethyl-phenyl)-methyl]-amide], the IC50 in test [1] is 0.08 µM; in the test on β 2c/2i (trypsin-like), at least 20 µM; in test [2] it was at least 20 µM; at β 1i (caspase-like) it was at least 20 µM; at β 1c (caspase-like), at least 20 µM.
`CCc1ccc(C(C#N)NC(=O)c2nc(CCNC(=O)c3ccc(C(F)(F)F)cc3F)n[nH]2)cc1` (stereo not drawn) [Example 91, 5-[2-(2-Fluoro-4-trifluoromethyl-benzoylamino)-ethyl]-2H-[1,2,4]triazole-3-carboxylic acid [cyano-(4-ethyl-phenyl)-methyl]-amide]: the IC50 in test [1] is 0.054 µM; in the test on β 2c/2i (trypsin-like) it was at least 20 µM; in test [2] it was at least 20 µM; at β 1i (caspase-like), at least 20 µM; at β 1c (caspase-like) it was at least 20 µM.

For orientation: IC50 means the concentration that inhibits the measured activity by half.
